Reference: US8563571B2, “Crystalline forms of oxymorphone hydrochloride” (Noramco, Inc., priority 2010, dated 2013)

How the values were obtained:
[1] = Physical stability at ambient temperature storage (re-analysis of crystalline form)
[2] = Dynamic vapor moisture sorption/desorption analysis; type: physicochemical; conditions: for Moisture uptake by weight: between 75% and 95% RH, sorption; for hysteresis during the desorption cycle: desorption cycle (Form B: between 45% RH and 5% RH); for relative humidity above which hygroscopicity was exhibited: dynamic vapor sorption/desorption, 5% to 95% RH
Protocol: Dynamic vapor sorption/desorption data were collected on a VTI SGA-100 Vapor Sorption Analyzer. Sorption and desorption data were collected over a range of 5% to 95% relative humidity (RH) at 10% RH intervals under a nitrogen purge. Samples were not dried prior to analysis. Equilibrium criteria used for analysis were less than 0.0100% weight change in 5 minutes, with a maximum equilibration time of 3 hours if the weight criterion was not met. Data were not corrected for the initial moisture content of the samples. NaCl and PVP were used as calibration standards.
Dynamic vapor moisture sorption/desorption data was collected for representative samples for oxymorphone HCl Form A and Form B, as shown in FIG. 13 and FIG. 16, respectively.

[3] = Mechanical grinding studies (physical stability of crystalline form)
[4] = re-analyzed after approximately 12 months

With CN1CC[C@]23c4c5ccc(O)c4O[C@H]2C(=O)CC[C@@]3(O)[C@H]1C5.Cl [Form D, 4,5-epoxy-3,14-dihydroxy-17-methyl-(5α)-morphinan-6-one hydrochloride (1:1)] the “crystalline form(s) converted to on ambient temperature storage” value (from here on “crystalline form(s) converted”) ([1]; after approximately 12 months) was “a mixture of Form A and Form B” and the “stability at ambient temperature storage” value [1, 4] was “unstable”.
In the case of CN1CC[C@]23c4c5ccc(O)c4O[C@H]2C(=O)CC[C@@]3(O)[C@H]1C5.Cl [Form L, 4,5-epoxy-3,14-dihydroxy-17-methyl-(5α)-morphinan-6-one hydrochloride (1:1)], the “crystalline form(s) converted” value ([1]; after approximately 10 weeks) was “a mixture of crystalline forms, one of which is Form A (a sesquihydrate) and the other is a monohydrate/hemi-ethanolate” and the “stability at ambient temperature storage” value ([1]; after approximately 10 weeks) was “unstable”.
In the case of CN1CC[C@]23c4c5ccc(O)c4O[C@H]2C(=O)CC[C@@]3(O)[C@H]1C5.Cl [Form A, 4,5-epoxy-3,14-dihydroxy-17-methyl-(5α)-morphinan-6-one hydrochloride (1:1), reference compound], the “moisture retained at the end of the desorption cycle” value ([2]; at 5% RH, end of cycle) was 2.4%, the “Moisture uptake by weight” value [2] was “about 50%” and the “hysteresis during the desorption cycle” value [2] was “hysteresis was observed”. For the same molecule, the “relative humidity above which hygroscopicity was exhibited” value [2] was “above 75%”.
For CN1CC[C@]23c4c5ccc(O)c4O[C@H]2C(=O)CC[C@@]3(O)[C@H]1C5.Cl [Form C, 4,5-epoxy-3,14-dihydroxy-17-methyl-(5α)-morphinan-6-one hydrochloride (1:1)], the “form found on re-analysis by pXRD after storage in ambient conditions” value ([1]; Example 8 sample, storage time not given) was “remain Form C” and the “stability at ambient temperature storage” value [1, 4] was “stable”.
With CN1CC[C@]23c4c5ccc(O)c4O[C@H]2C(=O)CC[C@@]3(O)[C@H]1C5.Cl [Form B, 4,5-epoxy-3,14-dihydroxy-17-methyl-(5α)-morphinan-6-one hydrochloride (1:1)] the “Moisture uptake by weight” value [2] was “about 43%”, the “hysteresis during the desorption cycle” value [2] was “no hysteresis was observed” and the “relative humidity above which hygroscopicity was exhibited” value [2] was “above 75%”. For the same molecule, the “moisture content at the end of the cycle (in words)” value ([2]; end of desorption cycle) was “returned to the initial moisture content”, the “physical stability under mechanical grinding” value ([3]; in the presence of a small quantity of water) was “physically stable” and the “physical stability under mechanical grinding” value ([3]; mechanically ground in the absence of water) was “partially converted to Form A”.
With CN1CC[C@]23c4c5ccc(O)c4O[C@H]2C(=O)CC[C@@]3(O)[C@H]1C5.Cl [Form F, 4,5-epoxy-3,14-dihydroxy-17-methyl-(5α)-morphinan-6-one hydrochloride (1:1)] the “crystalline form(s) converted” value ([1]; after approximately 10 months) was “converting to Form A” and the “stability at ambient temperature storage” value ([1]; after approximately 10 months) was “unstable”.
